From US5089623A, “Certain imidate insecticides” (Imperial Chemical Industries Plc, priority 1990, dated 1992)

What was measured:
Assay type in all cases: in vivo
[1] = test system: Housefly [Musca domestica]; test: Housefly insecticidal test (HF); conditions: per 25 female houseflies, 48 hours
[2] = test system: Tobacco Budworm [Heliothis virescens (Fabricius)]; test: Tobacco budworm contact test (TBW-C); conditions: second-instar larvae, 5 days, percent in solution
In short: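 Cotton cotyledons dipped 2–3 s in compound in 50:50 acetone–water, dried, then infested with 5 second-instar larvae and held 5 days at high humidity before scoring mortality.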

[3] = test system: Tobacco Budworm [Heliothis virescens (Fabricius)] eggs; test: Tobacco budworm egg test (TBW-E); conditions: percent in solution
[4] = test system: Beet Armyworm (Spodoptera exigua); test: Beet armyworm test (BAW); conditions: second-instar larvae, five days, percent in solution
In short: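 Sugar beet leaves were dipped 2-3 s in compound diluted in 50-50 acetone-water, dried, then infested with five second-instar larvae in humid dishes. Mortality was scored after five days at concentrations from 0.1% downward. LC50 was taken from dosage-mortality curves as percent compound in solution.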

[5] = test system: Cabbage Looper [Trichoplusia ni (Hubner)]; test: Cabbage looper test (CL); conditions: second-instar larvae, 3-5 days, percent in solution
[6] = test system: Aster Leafhopper [Macrosteles fascifrens (Stal)]; test: Aster leafhopper test (LH); conditions: adults/nymphs, 48 hours, percent in solution
[7] = test system: Rice water weevil [Lissorhoptrus oryzophilus (Kuschel)]; test: Rice water weevil test (RWW); conditions: per weevil, topical, female adults, 48 hours
Experimental: (§1) The compounds in Tables 1 and 2 above were tested for insecticidal activity using the following testing procedures. LC50 values, based on the results of these tests and calculated according to dosage-mortality curves, are expressed in Table 3.
Rice water weevil [Lissorhoptrus oryzophilus (Kuschel)]
Test compounds were diluted in acetone. Droplets (1 ul) of test solutions were applied to the ventral abdomens of ten female adult weevils. The treated weevils were placed in containers with wet cotton balls and rice foliage. The containers were covered and kept at a temperature of about 25° C. Mortality was recorded after 48 hours. […] The LC50 values are expressed below in Table 3 under the heading "RWW" in terms of μg of test compound per weevil.

[8] = test system: Maize weevil [Sitophilus Zeamais (Motschulsky)]; test: Maize weevil test (MW); conditions: adult weevils, treated corn seeds, 48 hours, percent in solution
In short: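 Adult weevils (10) were placed with four corn seeds that had been dipped 2-3 s in compound dissolved in 50:50 acetone:water, then dried, and held at about 25° C. Mortality was scored at 48 h. LC50 was taken from dosage-mortality curves and expressed as percent compound in solution, from a 0.01% top concentration.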

[9] = test system: Black Bean Aphid [Aphis fabae (Scop.)]; test: Black bean aphid test (BBA); conditions: percent of test compound in sprayed solution, 48 hours
Experimental: as §1
Black Bean Aphid [Aphis fabae (Scop.)]
Nasturtium plants (Tropaeolum sp.) approximately 5 cm tall, were transplanted into sandy loam soil in small cups and infested with 25-50 black bean aphids of mixed ages. Twenty-four hours later they were sprayed to the point of runoff with 50-50 acetone-water solutions of the test compounds. Treated plants were held in the greenhouse and mortality was recorded after 48 hours. Test concentrations ranged from 0.05% downward. The LC-50 value is expressed below in Table 3 under the heading "BBA" in terms of percent of the test compound in the sprayed solution.

Row | SMILES | LC50 HF [1] [µg] | LC50 TBW C [2] [%] | LC50 TBW E [3] [%] | LC50 BAW [4] [%] | LC50 CL [5] [%] | LC50 LH [6] [%] | LC50 RWW [7] [µg] | LC50 MW [8] [%] | LC50 BBA [9] [%]
1 | CC(C)C(=Nc1cc(F)cc(F)c1)OCc1cccc(Oc2ccccc2)c1 [Compound 55] | > 100 | 0.004 | 0.06 | 0.006 | 0.0017 | 0.0005 | > 2.5 |  | 
2 | CC(C)C(=Nc1ccc(F)c(Cl)c1)OCc1cccc(Oc2ccccc2)c1 [Compound 81] | 4 | 0.0009 | 0.007 | 0.003 | 0.0006 | 0.0003 | > 0.5 | 0.005 | 
3 | CC(C)C(=Nc1ccc(F)c(Cl)c1)OCc1cccc(Oc2ccc(F)cc2)c1 [Compound 89] | 5 | 0.0005 | 0.04 | 0.009 | 0.00003 | 0.001 | > 2.5 | 0.005 | 
4 | CC(C)C(=Nc1ccc2c(c1)OCO2)OCc1cccc(Oc2ccccc2)c1 [Compound 180] | 2 | 0.003 | 0.03 | 0.005 | 0.0004 | 0.0015 | > 2.5 | 0.008 | 
5 | CC(C)C(=Nc1ccc2c(c1)OCO2)OCc1ccc(F)c(Oc2ccccc2)c1 [Compound 181] | 25 | 0.001 | 0.01 | 0.001 | 0.0005 |  | > 2.5 | 0.005 | 
6 | CC(C)C(=Nc1ccc(F)c(Cl)c1)OCc1ccc(F)c(Oc2ccc(F)cc2)c1 [Compound 216] | 2 | 0.00018 | 0.005 | 0.0007 | 0.000007 | 0.00025 | 0.067 | 0.0017 | 
7 | CC(C)C(=Nc1ccc(F)c(Cl)c1)OCc1cccc(Oc2ccc(Cl)cc2)c1 [Compound 239] | 14 | 0.0005 | 0.025 | 0.005 | 0.00015 | 0.002 | > 2.5 | 0.006 | 
8 | CC(C)C(=Nc1ccc2c(c1)OC(F)(F)O2)OCc1cccc(Oc2ccc(F)cc2)c1 [Compound 244] | 14 | 0.00025 | > 0.1 | 0.002 | 0.00004 |  | 0.09 | 0.0025 | 
9 | CC(C)C(=Nc1ccc2c(c1)OC(F)(F)O2)OCc1cccc(Oc2ccccc2)c1 [Compound 245] | 20 | 0.0015 | 0.016 | 0.001 | 0.0035 |  | > 2.5 | 0.006 | 
10 | CC(C)C(=Nc1ccc(F)c(Cl)c1)OCc1ccc(F)c(Oc2ccc(Cl)cc2)c1 [Compound 267] | 8.4 | 0.0003 | 0.015 | 0.0012 | 0.00008 | 0.002 | 0.11 | 0.0027 | 
11 | CC(C)C(=Nc1ccc(Cl)cc1)OCc1cccc(Oc2ccc(Cl)cc2)c1 [Compound 269] | 25 | 0.001 | 0.04 | 0.0024 | 0.0003 | 0.003 | > 2.5 | > 0.01 | 
12 | CC(C)C(=Nc1ccc(F)c(Br)c1)OCc1ccc(F)c(Oc2ccc(F)cc2)c1 [Compound 273] | 7 | 0.00025 | 0.015 | 0.0017 | 0.000018 | 0.0003 | > 2.5 | 0.004 | 
13 | CC(C)C(=Nc1ccc(F)c(C(F)(F)F)c1)OCc1ccc(F)c(Oc2ccc(F)cc2)c1 [Compound 277] | 4 | 0.0005 | 0.013 | 0.005 | 0.00001 | 0.0003 | 0.065 | > 0.01 | 
14 | CC(C)C(=Nc1ccc(F)c(F)c1)OCc1ccc(F)c(Oc2ccc(F)cc2)c1 [Compound 278] | 3 | 0.00026 | 0.008 | 0.0012 | 0.00002 | 0.0003 | 0.085 | 0.0063 | 
15 | CC(C)C(=Nc1ccc(F)c(I)c1)OCc1ccc(F)c(Oc2ccc(F)cc2)c1 [Compound 281] | 5 | 0.00025 | 0.006 | 0.0027 | 0.00002 |  | > 2.5 | 0.005 | 
16 | CC(C)C(=Nc1ccc2c(c1)OC(F)(F)O2)OCc1ccc(F)c(Oc2ccccc2)c1 [Compound 285] | 36 | 0.00017 | 0.005 | 0.0006 | 0.000075 |  | 0.13 | 0.005 | 
17 | CC(C)C(=Nc1ccc(OC(F)(F)F)cc1)OCc1ccc(F)c(Oc2ccc(F)cc2)c1 [Compound 286] | 34 | 0.00017 | 0.005 | 0.0004 | 0.000024 | 0.0006 | 0.09 | 0.0039 | 
18 | CC(C)C(=Nc1ccc(OC(F)(F)F)cc1)OCc1ccc(F)c(Oc2ccc(Cl)cc2)c1 [Compound 323] | > 100 | 0.00065 | 0.045 | 0.0025 | 0.0006 | 0.05 | 0.16 | 0.0075 | 
19 | CC(C)C(=Nc1ccc(F)c(F)c1)OCc1ccc(F)c(Oc2ccccc2)c1 [Compound 336] | 3.6 | 0.0005 | 0.02 | 0.001 | 0.00017 |  | > 2.5 | 0.0091 | 
20 | CC(C)C(=Nc1ccc(C(F)(F)F)cc1)OCc1ccc(F)c(Oc2ccccc2)c1 [Compound 337] | 21 | 0.0005 | 0.008 | 0.0005 | 0.0007 |  | 0.067 | 0.0053 | 
21 | CC(C)C(=Nc1ccc(F)c(Cl)c1F)OCc1cccc(Oc2ccc(F)cc2)c1 [Compound 352] | 4.6 | 0.0004 | > 0.1 | > 0.1 | 0.000065 | 0.0004 | > 2.5 | 0.0075 | 
22 | C=CCOc1cccc(COC(=Nc2ccc(F)c(Cl)c2)C(C)C)c1 [Compound 479] | 66 |  | > 0.1 |  | 0.013 | > 0.05 |  | > 0.01 | > 0.05
23 | C=CCOc1cccc(COC(=Nc2cccc(C(F)(F)F)c2)C(C)C)c1 [Compound 480] | > 100 |  | > 0.1 |  | 0.01 |  |  |  | > 0.05
24 | CC(C)C(=Nc1ccc(C(F)(F)F)cc1)OCc1cccc(Cc2ccccc2)c1 [Compound 535] | 41 |  |  |  | > 0.1 | > 0.05 |  | > 0.01 | > 0.05
25 | CC(C)C(=Nc1ccc(F)c(Cl)c1)OCc1cccc(Cc2ccccc2)c1 [Compound 537] | 20 |  |  |  | > 0.1 | > 0.05 |  | > 0.01 | > 0.05
